Assay results taken from US10618903B2, “Heteroaryl substituted aminopyridine compounds” (BRISTOL-MYERS SQUIBB COMPANY, priority 2015, dated 2020).

How the values were obtained:
IRAK4 = IRAK4 (Homo sapiens (Human), UniProt Q9NWZ3); assay: IRAK4 Inhibition Assay; format: biochemical; settings: ATP 500 μM; IRAK4 0.6 nM
How it was run: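 Enzyme 0.6 nM, ATP 500 μM, FL-peptide 1.5 μM, DMSO 1.6%; HEPES pH 7.2/MgCl2/Brij 35/DTT buffer. RT, 60 min, EDTA stop. Mobility-shift product/substrate ratio; % inhib vs no-enzyme and vehicle controls.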

Caco Permeability Assay = format: in vitro ADME; settings: human, Caco-2, Caco-2 cells, 3 μM compound
[1] = tested on: IL-6 levels in human whole blood stimulated with a TLR2 agonist; assay: IRAK4 Whole Blood Assay (lipoteichoic acid/TLR2-stimulated IL-6); format: cell-based; settings: lipoteichoic acid 10 μg/mL, IL-6 readout
How it was run: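 ACD-A-anticoagulated human whole blood was preincubated with compounds for 60 min at 37 °C under 5% CO2. It was then stimulated with 10 μg/mL lipoteichoic acid (final) in RPMI for 5 h. IL-6 in plasma supernatants was measured by flow cytometry bead assay.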

Chain of IRAK4 (Q9NWZ3 whole entry): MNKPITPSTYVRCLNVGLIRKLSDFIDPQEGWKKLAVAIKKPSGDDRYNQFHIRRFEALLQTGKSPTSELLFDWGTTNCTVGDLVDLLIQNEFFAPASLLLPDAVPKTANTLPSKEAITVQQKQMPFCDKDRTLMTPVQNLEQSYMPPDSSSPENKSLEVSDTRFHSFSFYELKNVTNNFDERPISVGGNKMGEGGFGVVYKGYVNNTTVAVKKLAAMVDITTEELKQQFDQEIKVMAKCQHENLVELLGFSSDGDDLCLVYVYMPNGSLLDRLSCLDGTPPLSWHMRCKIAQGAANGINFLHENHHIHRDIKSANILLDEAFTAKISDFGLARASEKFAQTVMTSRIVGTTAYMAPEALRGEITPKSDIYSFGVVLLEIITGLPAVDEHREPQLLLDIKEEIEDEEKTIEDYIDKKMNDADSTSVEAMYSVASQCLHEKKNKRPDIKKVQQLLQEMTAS

Structure (SMILES): CC(C)(O)[C@H](F)CNC(=O)c1cnc(-c2cnc3cc(C#N)cnn23)cc1NC1CCOCC1 [Example 146, (R)-6-(7-cyanoimidazo[1,2-b]pyridazin-3-yl)-N-(2-fluoro-3-hydroxy-3-methylbutyl)-4-((tetrahydro-2H-pyran-4-yl)amino)nicotinamide]
- IC50 (IRAK4): 2 nM
- Papp at 2 h, 3 µM (Caco Permeability Assay): < 1.5 ×10⁻⁶ cm/s
- EC50 ([1]; Homo sapiens): 150 nM

Structure (SMILES): CC(C)(O)[C@H](F)CNC(=O)c1cnc(-c2cnc3cc(C#N)cnn23)cc1NC1COC1 [Example 147, (R)-6-(7-cyanoimidazo[1,2-b]pyridazin-3-yl)-N-(2-fluoro-3-hydroxy-3-methylbutyl)-4-(oxetan-3-ylamino) nicotinamide]
- IC50 (IRAK4): 3 nM
- Papp at 2 h, 3 µM (Caco Permeability Assay): < 1.5 ×10⁻⁶ cm/s
- EC50 ([1]; Homo sapiens): 90 nM

Structure (SMILES): Cc1cnn2c(-c3cc(NC(C)C)c(C(=O)NC[C@@H](F)C(C)(C)O)cn3)cnc2c1 [Example 148, (R)—N-(2-fluoro-3-hydroxy-3-methylbutyl)-4-(isopropylamino)-6-(7-methylimidazo[1,2-b]pyridazin-3-yl)nicotinamide]
- IC50 (IRAK4): 7 nM
- Papp at 2 h, 3 µM (Caco Permeability Assay): 8.9 ×10⁻⁶ cm/s
- EC50 ([1]; Homo sapiens): 350 nM

Structure (SMILES): CC[C@H](F)CNc1cc(-c2cnn3cc(Cl)cnc23)ncc1C(=O)NC[C@@H](F)C(C)(C)O [Example 158, 6-(6-chloropyrazolo[1,5-a]pyrimidin-3-yl)-N—((R)-2-fluoro-3-hydroxy-3-methylbutyl)-4-(((S)-2-fluorobutyl)amino)nicotinamide]
- IC50 (IRAK4): 5 nM
- Papp at 2 h, 3 µM (Caco Permeability Assay): 14.8 ×10⁻⁶ cm/s
- EC50 ([1]; Homo sapiens): 870 nM

Structure (SMILES): CC(C)(O)[C@H](F)CNC(=O)c1cnc(-c2cnn3cc(Cl)cnc23)cc1NCCC(F)(F)F [Example 161, (R)-6-(6-chloropyrazolo[1,5-a]pyrimidin-3-yl)-N-(2-fluoro-3-hydroxy-3-methylbutyl)-4-((3,3,3-trifluoropropyl)amino)nicotinamide]
- IC50 (IRAK4): 6 nM
- Papp at 2 h, 3 µM (Caco Permeability Assay): 15.3 ×10⁻⁶ cm/s
- EC50 [1]: 610 nM

Structure (SMILES): CC(C)(O)[C@H](F)CNC(=O)c1cnc(-c2cnn3cc(Cl)cnc23)cc1NCC(F)F [Example 163, (R)-6-(6-chloropyrazolo[1,5-a]pyrimidin-3-yl)-4-((2,2-difluoroethyl)amino)-N-(2-fluoro-3-hydroxy-3-methylbutyl) nicotinamide]
- IC50 (IRAK4): 6 nM
- Papp at 2 h, 3 µM (Caco Permeability Assay): 19.1 ×10⁻⁶ cm/s
- EC50 ([1]; Homo sapiens): 760 nM

Structure (SMILES): CC(C)(O)[C@H](F)CNC(=O)c1cnc(-c2cnn3cc(Cl)cnc23)cc1NCCCO [Example 164, (R)-6-(6-chloropyrazolo[1,5-a]pyrimidin-3-yl)-N-(2-fluoro-3-hydroxy-3-methylbutyl)-4-((3-hydroxypropyl)amino)nicotinamide]
- IC50 (IRAK4): 11 nM
- Papp at 2 h, 3 µM (Caco Permeability Assay): < 1.5 ×10⁻⁶ cm/s
- EC50 ([1]; Homo sapiens): 270 nM

Structure (SMILES): CC(C)Nc1cc(-c2cnn3cc(C#N)cnc23)ncc1C(=O)NCCC(C)(C)C#N [Example 169, N-(3-cyano-3-methylbutyl)-6-(6-cyanopyrazolo[1,5-a]pyrimidin-3-yl)-4-(isopropylamino)nicotinamide]
- IC50 (IRAK4): 8 nM
- Papp at 2 h, 3 µM (Caco Permeability Assay): 14.2 ×10⁻⁶ cm/s
- EC50 ([1]; Homo sapiens): 650 nM

Structure (SMILES): CC(C)(O)[C@H](F)CNC(=O)c1cnc(-c2cnn3cc(C#N)cnc23)cc1NCC(F)F [Example 171, (R)-6-(6-cyanopyrazolo[1,5-a]pyrimidin-3-yl)-4-((2,2-difluoroethyl)amino)-N-(2-fluoro-3-hydroxy-3-methylbutyl)nicotinamide]
- IC50 (IRAK4): 6 nM
- Papp at 2 h, 3 µM (Caco Permeability Assay): 1.9 ×10⁻⁶ cm/s
- EC50 ([1]; Homo sapiens): 360 nM

Structure (SMILES): CC(F)(F)CNc1cc(-c2cnn3cc(C#N)cnc23)ncc1C(=O)NC[C@@H](F)C(C)(C)O [Example 172, (R)-6-(6-cyanopyrazolo[1,5-a]pyrimidin-3-yl)-4-((2,2-difluoropropyl)amino)-N-(2-fluoro-3-hydroxy-3-methylbutyl)nicotinamide]
- IC50 (IRAK4): 4 nM
- Papp at 2 h, 3 µM (Caco Permeability Assay): 4.2 ×10⁻⁶ cm/s
- EC50 ([1]; Homo sapiens): 460 nM

Structure (SMILES): CC(C)Nc1cc(-c2cnc3cccnn23)ncc1C(=O)NC[C@@H](F)C(C)(C)O [Example 177, (R)—N-(2-fluoro-3-hydroxy-3-methylbutyl)-6-(imidazo[1,2-b]pyridazin-3-yl)-4-(isopropylamino)nicotinamide]
- IC50 (IRAK4): 10 nM
- Papp at 2 h, 3 µM (Caco Permeability Assay): 12.6 ×10⁻⁶ cm/s
- EC50 [1]: 880 nM

Structure (SMILES): CCNc1cc(-c2cnc3cc(Cl)cnn23)ncc1C(=O)NC[C@@H](F)C(C)(C)O [Example 178, (R)-6-(7-chloroimidazo[1,2-b]pyridazin-3-yl)-4-(ethylamino)-N-(2-fluoro-3-hydroxy-3-methylbutyl)nicotinamide]
- IC50 (IRAK4): 4 nM
- Papp at 2 h, 3 µM (Caco Permeability Assay): 21.5 ×10⁻⁶ cm/s
- EC50 ([1]; Homo sapiens): 710 nM

Structure (SMILES): CCCNc1cc(-c2cnc3cc(Cl)cnn23)ncc1C(=O)NC[C@@H](F)C(C)(C)O [Example 179, (R)-6-(7-chloroimidazo[1,2-b]pyridazin-3-yl)-N-(2-fluoro-3-hydroxy-3-methylbutyl)-4-(propylamino)nicotinamide]
- IC50 (IRAK4): 3 nM
- Papp at 2 h, 3 µM (Caco Permeability Assay): 16.8 ×10⁻⁶ cm/s
- EC50 ([1]; Homo sapiens): 700 nM

Structure (SMILES): CC(C)(O)[C@H](F)CNC(=O)c1cnc(-c2cnc3cc(Cl)cnn23)cc1NC1CCC1 [Example 180, (R)-6-(7-chloroimidazo[1,2-b]pyridazin-3-yl)-4-(cyclobutylamino)-N-(2-fluoro-3-hydroxy-3-methylbutyl)nicotinamide]
- IC50 (IRAK4): 2 nM
- Papp at 2 h, 3 µM (Caco Permeability Assay): 16.5 ×10⁻⁶ cm/s
- EC50 ([1]; Homo sapiens): 930 nM

Structure (SMILES): C[C@@H](CO)Nc1cc(-c2cnc3cc(Cl)cnn23)ncc1C(=O)NC[C@@H](F)C(C)(C)O [Example 181, 6-(7-chloroimidazo[1,2-b]pyridazin-3-yl)-N—((R)-2-fluoro-3-hydroxy-3-methylbutyl)-4-(((S)-1-hydroxypropan-2-yl)amino)nicotinamide]
- IC50 (IRAK4): 3 nM
- Papp at 2 h, 3 µM (Caco Permeability Assay): < 1.5 ×10⁻⁶ cm/s
- EC50 ([1]; Homo sapiens): 100 nM

Structure (SMILES): CC(C)(O)[C@H](F)CNC(=O)c1cnc(-c2cnc3cc(C#N)cnn23)cc1NC1CCC1 [Example 183, (R)-6-(7-cyanoimidazo[1,2-b]pyridazin-3-yl)-4-(cyclobutylamino)-N-(2-fluoro-3-hydroxy-3-methylbutyl)nicotinamide]
- IC50 (IRAK4): 2 nM
- Papp at 2 h, 3 µM (Caco Permeability Assay): 8.9 ×10⁻⁶ cm/s
- EC50 ([1]; Homo sapiens): 750 nM

Structure (SMILES): Cc1cnn2c(-c3cc(NC4CC4)c(C(=O)NC[C@@H](F)C(C)(C)O)cn3)cnc2c1 [Example 184, (R)-4-(cyclopropylamino)-N-(2-fluoro-3-hydroxy-3-methylbutyl)-6-(7-methylimidazo[1,2-b]pyridazin-3-yl)nicotinamide]
- IC50 (IRAK4): 5 nM
- Papp at 2 h, 3 µM (Caco Permeability Assay): 3.4 ×10⁻⁶ cm/s
- EC50 ([1]; Homo sapiens): 510 nM

Structure (SMILES): Cc1cnn2c(-c3cc(NC4CCC4)c(C(=O)NC[C@@H](F)C(C)(C)O)cn3)cnc2c1 [Example 185, (R)-4-(cyclobutylamino)-N-(2-fluoro-3-hydroxy-3-methylbutyl)-6-(7-methylimidazo[1,2-b]pyridazin-3-yl)nicotinamide]
- IC50 (IRAK4): 7 nM
- Papp at 2 h, 3 µM (Caco Permeability Assay): 4.7 ×10⁻⁶ cm/s
- EC50 ([1]; Homo sapiens): 820 nM

Structure (SMILES): CC(C)Nc1cc(-c2cnc3cc(C#N)cnn23)ncc1C(=O)NCCC(C)(C)O [Example 186, 6-(7-cyanoimidazo[1,2-b]pyridazin-3-yl)-N-(3-hydroxy-3-methylbutyl)-4-(isopropylamino) nicotinamide]
- IC50 (IRAK4): 5 nM
- Papp at 2 h, 3 µM (Caco Permeability Assay): 12.2 ×10⁻⁶ cm/s
- EC50 ([1]; Homo sapiens): 250 nM

Structure (SMILES): CCNc1cc(-c2cnc3cc(C#N)cnn23)ncc1C(=O)NC[C@@H](F)C(C)(C)O [Example 188, (R)-6-(7-cyanoimidazo[1,2-b]pyridazin-3-yl)-4-(ethylamino)-N-(2-fluoro-3-hydroxy-3-methylbutyl)nicotinamide]
- IC50 (IRAK4): 5 nM
- Papp at 2 h, 3 µM (Caco Permeability Assay): 6.7 ×10⁻⁶ cm/s
- EC50 ([1]; Homo sapiens): 240 nM

Structure (SMILES): CC(C)(F)[C@H](F)CNC(=O)c1cnc(-c2cnc3cc(Cl)cnn23)cc1NC1COC1 [Example 189, (R)-6-(7-chloroimidazo[1,2-b]pyridazin-3-yl)-N-(2,3-difluoro-3-methylbutyl)-4-(oxetan-3-ylamino)nicotinamide]
- IC50 (IRAK4): 7 nM
- Papp at 2 h, 3 µM (Caco Permeability Assay): 31.2 ×10⁻⁶ cm/s
- EC50 ([1]; Homo sapiens): 490 nM

Structure (SMILES): CC(C)(O)[C@H](F)CNC(=O)c1cnc(-c2cnc3cc(Cl)cnn23)cc1NCCC(F)(F)F [Example 190, (R)-6-(7-chloroimidazo[1,2-b]pyridazin-3-yl)-N-(2-fluoro-3-hydroxy-3-methylbutyl)-4-((3,3,3-trifluoropropyl)amino)nicotinamide]
- IC50 (IRAK4): 6 nM
- Papp at 2 h, 3 µM (Caco Permeability Assay): 15.3 ×10⁻⁶ cm/s
- EC50 ([1]; Homo sapiens): 610 nM

Structure (SMILES): CC(C)(C)CCNC(=O)c1cnc(-c2cnc3cc(Cl)cnn23)cc1NC1COC1 [Example 192, 6-(7-chloroimidazo[1,2-b]pyridazin-3-yl)-N-(3,3-dimethylbutyl)-4-(oxetan-3-ylamino)nicotinamide]
- IC50 (IRAK4): 10 nM
- Papp at 2 h, 3 µM (Caco Permeability Assay): 29.9 ×10⁻⁶ cm/s
- EC50 ([1]; Homo sapiens): 500 nM

Structure (SMILES): CC(C)Nc1cc(-c2cnc3cc(C#N)cnn23)ncc1C(=O)NC[C@H](F)C(C)(C)O [Example 194, (S)-6-(7-cyanoimidazo[1,2-b]pyridazin-3-yl)-N-(2-fluoro-3-hydroxy-3-methylbutyl)-4-(isopropylamino)nicotinamide]
- IC50 (IRAK4): 8 nM
- Papp at 2 h, 3 µM (Caco Permeability Assay): 4.2 ×10⁻⁶ cm/s
- EC50 ([1]; Homo sapiens): 230 nM

Structure (SMILES): CC(C)(O)[C@H](F)CNC(=O)c1cnc(-c2cnc3cc(C#N)cnn23)cc1NC1CC(F)(F)C1 [Example 195, (R)-6-(7-cyanoimidazo[1,2-b]pyridazin-3-yl)-4-((3,3-difluorocyclobutyl)amino)-N-(2-fluoro-3-hydroxy-3-methylbutyl)nicotinamide]
- IC50 (IRAK4): 4 nM
- Papp at 2 h, 3 µM (Caco Permeability Assay): 3.7 ×10⁻⁶ cm/s
- EC50 ([1]; Homo sapiens): 700 nM

Structure (SMILES): CC(C)Nc1cc(-c2cnc3cc(C#N)cnn23)ncc1C(=O)NCC(F)C1CCNCC1 (stereo not drawn) [Example 197, 6-(7-cyanoimidazo[1,2-b]pyridazin-3-yl)-N-(2-fluoro-2-(piperidin-4-yl)ethyl)-4-(isopropylamino)nicotinamide]
- IC50 (IRAK4): 2 nM
- Papp at 2 h, 3 µM (Caco Permeability Assay): < 1.5 ×10⁻⁶ cm/s
- EC50 ([1]; Homo sapiens): 280 nM
